In brackets after ≈: the same amount, converted by molar mass. Several values for one entry are separate records, joined by “and”; a condition that tells them apart may be missing. Identical values can stand only once.
Key:
[1] = tested on: HCT116 (human colorectal carcinoma); test: Disk diffusion assay, zone of inhibition, HCT116; format: cell-based; settings: 1 mg/mL
Experimental: (§1) A disk diffusion assay was performed to define the differential cell killing ability of 15-O-(3′-hydroxy-3′-isopropyl-4′-methylpentanoyl)bruceolide. Seven cell types were assayed: L1210 (ATCC CCL-219) (murine leukemia), CCRF-CEM (ATCC CCL-119) (human leukemia), Colon 38 (murine colon adenocarcinoma), HCT116 (ATCC CCL-247) (human colorectal carcinoma), H125 (human lung carcinoma). The murine and human granulocyte/macrophage progenitor cell line (CFU-GM), served as controls.
(§2) Colon 38 cells (about 1 gram) were cut into small fragments in 15 mL of Hank's Balanced Salt Solution (HBSS) over a 100-mesh sieve and gently forced through by the scissors with HBSS constantly perfusing the sieve. The resulting material was then drawn into and out of a 5 mL syringe without a needle to further disperse the cell clumps. The cell solution was diluted and plated in 0.3% agarose in DMEM plus 10% heat-inactivated Bovine Calf Serum (BCS). For plating of all of the cell types (except controls), the 60 mm plates were first prepared with a hard agar bottom layer (0.6% agar in RPMI-1640 plus 15% BCS).
(§3) HCT116 and H125 cells were maintained in cell culture, and were removed from culture by a trypsin-collagenase-DNAase cocktail. The plating efficiencies of each cell type was sufficiently high that 30,000 cells in 3 mL produced the desired number of colonies (i.e., over 10,000 per plate) in 60 mm plates. This soft agar top layer (0.3% with the serum and media as above) plus the titrated tumor cells were poured into the plates and allowed to solidify.
(§4) A 15 μl sample of each compound was dropped onto a 6.5 mm disk (Baxter filter disks). The disks were allowed to dry overnight and then placed close to the edge of a petri dish. Depending upon the cell type, the dishes were incubated for 7 to 10 days, and examined by an inverted stereo-microscope (10×) for measurement of the zone of inhibition. The zone of inhibition was measured from the edge of the filter disk to the beginning of normal-sized colony formation. The diameter of the filter disk, 6.5 mm, was arbitrarily taken as a zone of 200 units. Compounds that were selective for killing solid tumors, as compared to leukemia or normal cells (“solid tumor selective”) were defined as those compounds which produced a difference in zones between solid tumor cells and either normal or leukemia cells of at least 250 units. The results of this analysis are set forth in Table 4, which illustrates the relative diameters of the zones of inhibition by various drugs on the growth of the respective cell types at various drug dilutions.

[2] = tested on: HCT-116 cells; test: HCT-116 cytotoxicity, viable cell count by trypan blue; format: cell-based, human
[3] = tested on: H125 (human lung carcinoma); test: Disk diffusion assay, zone of inhibition, H125; format: cell-based; settings: 1 mg/mL
Experimental: as §1, §2, §3, §4

[4] = tested on: L1210 (murine leukemia); test: Disk diffusion assay, zone of inhibition, L1210; format: cell-based; settings: 1 mg/mL
Experimental: as §1, §2, §4

[5] = tested on: CCRF-CEM (human leukemia); test: Disk diffusion assay, zone of inhibition, CCRF-CEM; format: cell-based; settings: 1 mg/mL
Experimental: as §1, §2, §4

[6] = tested on: Colon 38 (murine colon adenocarcinoma); test: Disk diffusion assay, zone of inhibition, Colon 38; zone differentials, potency and product; format: cell-based; design: key to C38ΔL1210 / C38ΔCFU: difference of zone of inhibition values, in zone units; settings: for zone of inhibition, Colon 38: 1 mg/mL; for Sum: C38ΔL1210 plus C38ΔCFU; for C38ΔL1210 / C38ΔCFU: difference between zone of inhibition values; for C38ΔL1210: Colon38 vs L1210 leukemia; for C38ΔCFU: Colon38 vs normal cell CFU-GM; for Product: potency multiplied by zone differentials
Experimental: as §1, §2, §4
The degree of differential sensitivity of several inventive compounds was compared with respect to the Colon38 cell line, the L1210 cell line, and the control CFU-GM cell lines. The degree of differential sensitivity was estimated by calculating the difference between the zone of inhibition values, as determined in Example 6, for the solid tumor compared to either the leukemia (C38ΔL1210) or normal cell (C38ΔCFU).
The potency of each of several inventive compounds was determined by identifying the dilution required to yield an average zone of inhibition of 500 units for the Colon38 cell type. Then the potency and the zone differentials were multiplied to define a “product” (see Table 5), which can be used to rank the compounds tested for their potential for further development; the greater the product value the greater the probability of useful chemotherapeutic utility.

[7] = tested on: HCT-116 cells; test: Clonogenic assay, HCT-116; format: cell-based, human; settings: colonies at 7 days
Experimental: A clonogenic assay was performed using HCT-116 cells. Specifically, HCT-116 cells were seeded at 200 to 20,000 cells in 60 mm dishes. […] At either 2 hours or 24 hours following drug administration, the drug-containing media was removed, and fresh media without drug was added. In addition, one group of cells was subjected to continuous drug exposure for the entire incubation period. The dishes were incubated for 7 days (at 37° C. and 5% CO2), media was removed, and the colonies were stained with methylene blue. Colonies containing 50 cells or more were counted. The results were normalized to an untreated control. Plating efficiency for the untreated cells was about 90%. Repeat experiments also were carried out to define the cell survival range between 1 (100%) and 10^−3 (0.1%) survival. A survival rate of 10^−1 was chosen as the minimal level that would be required in vivo to achieve therapeutic efficacy against HCT-116 cells in tumor-bearing mice. The clonogenic dose response to 15-O-(3′-hydroxy-3′-isopropyl-4′-methylpentanoyl)bruceolide is illustrated in FIG. 4. The clonogenic dose response to 15-(3-isopropyl-4-methyl-2-pentenoyl)-bruceolide is illustrated in FIG. 5.

[8] = tested on: murine CFU-GM; test: Disk diffusion assay, zone of inhibition, murine CFU-GM; format: cell-based; settings: 1 mg/mL
Experimental: as §1
For CFU-GM cells, the femoral marrow of BD2F1 mice was flushed with MEM alpha (2 mL per femur). The cells were passed through an 18 gauge needle twice and the monodispersed suspension was counted. A total of 1.5×10^6 cells were plated in 3 mL of 0.3% agar with the addition of 10% L cell conditioned media, which provided colony stimulating factor, in MEM-alpha plus 10% BCS. For human CFU-GM, the cells were obtained from Poietic Technologies, Inc. (Gaithersburg, Md.) and washed twice with PBS before being titered and added to the agar mixture. The same cell number, culture conditions, and conditioning factors used with respect to the murine CFU-GM cells were used with the human cells, except that the cultures were assessed after 10 days of incubation.
as §4

[9] = tested on: SK-N-AS; test: MTT cytotoxicity assay (% kill), SK-N-AS; format: cell-based, human; settings: 1.0 μg/mL, MTT after five days
Experimental: (§5) The following human tumor cell lines were obtained and cultured in sextuplicate microwells at 37° C. and 5% CO2 in humidified air and in 10% FBS in Eagles MEM: SK—N—FI, SK—N-AS, LS-174T, WiDr, HuTu-80, MCF7, NCI-AR, MES-Sar, and PL-45. Cells from each cell line were separately treated with an amount of one of the compounds of Formula I, II, or III (see Table 1). Cells were exposed to each compound (0.1 μg/mL or 1.0 μg/mL) for one hour or 24 hours, rinsed with drug-free media, and incubated for an additional five days. The number of viable cells after five days was measured using an MTT (3-(4,5-dimethylthiazol-2-yl)-2,5-diphenyltetrazolium bromide) assay (see, e.g., Mosmann, J. Immunol. Methods, 65(1-2), 55-63 (1983)).
(§6) The cytotoxicity of each drug was determined and expressed as the percent of cells killed (“% kill”).

[10] = tested on: LS-174T; test: MTT cytotoxicity assay (% kill), LS-174T; format: cell-based, human; settings: 1.0 μg/mL, MTT after five days
Experimental: as §5, §6

[11] = no dilution, 15 μl on disk, 6.5 mm = 200 units

CC1=CC(=O)[C@@H](O)[C@]2(C)[C@H]3[C@@]4(O)OC[C@]35[C@H]([C@@H](C)[C@H]4O)[C@@H](O)C(=O)O[C@@H]5C[C@@H]12 [Glaucarubolone, glaucarubolone]
zone of inhibition, H-116 ([1]; dilution 1/10): 600 units | zone of inhibition, H-116 ([1]; dilution 1/100): 0 units | zone of inhibition, H-116 ([1]; dilution 1/1000): 0 units | zone of inhibition, H-116 [1, 11]: >1000 units | IC90/IC50 ([2]; HCT-116): 58 | IC50 ([2]; Homo sapiens, 72 h, HCT-116, 3 days with compound, viable cells, by interpolation, read-out: IC50): 0.04 µg/mL (≈ 0.101 µM) | IC90 ([2]; Homo sapiens, 72 h, HCT-116, 3 days with compound, viable cells, by interpolation, read-out: IC90): 2.3 µg/mL (≈ 5.83 µM) | zone of inhibition, H-125 M ([3]; dilution 1/10): 700 units | zone of inhibition, H-125 M ([3]; dilution 1/100): 0 units | zone of inhibition, H-125 M ([3]; dilution 1/1000): 0 units | zone of inhibition, H-125 M [3, 11]: >1000 units | zone of inhibition, L1210 ([4]; dilution 1/100): 0 units | zone of inhibition, L1210 ([4]; dilution 1/1000): 0 units | zone of inhibition, L1210 [4, 11]: 400 units | zone of inhibition, CEM ([5]; dilution 1/10): 600 units | zone of inhibition, CEM ([5]; dilution 1/100): 0 units | zone of inhibition, CEM ([5]; dilution 1/1000): 0 units | zone of inhibition, CEM [5, 11]: 900 units | zone of inhibition, Colon 38 ([6]; dilution 1/10): >1000 units and 600 units | zone of inhibition, Colon 38 ([6]; dilution 1/40): 400 units | zone of inhibition, Colon 38 ([6]; dilution 1/100): 400 units | zone of inhibition, Colon 38 ([6]; dilution 1/1000): 0 units | zone of inhibition, Colon 38 [6, 11]: >1000 units | Sum [6]: 1150 and 800 | C38ΔL1210 [6]: 550 and 400 | C38ΔCFU [6]: 600 and 400 | Product [6]: 4600 and 3600 | Concentration Required for 10^−1 Survival Fraction ([7]; HCT-116, 2 Hour Exposure): >10 μg/mL | Concentration Required for 10^−1 Survival Fraction ([7]; HCT-116, 24 Hour Exposure): 1 × 10^0 μg/mL | Concentration Required for 10^−1 Survival Fraction ([7]; HCT-116, Continuous Exposure): 2 × 10^−2 μg/mL | zone of inhibition, murine CFU-GM ([8]; dilution 1/10): 0 units | zone of inhibition, murine CFU-GM ([8]; dilution 1/40): 0 units | zone of inhibition, murine CFU-GM ([8]; dilution 1/100): 0 units | zone of inhibition, murine CFU-GM ([8]; dilution 1/1000): 0 units | zone of inhibition, murine CFU-GM [8, 11]: 50 units

COC(=O)C12OCC34C(CC5C(C)=C(O)C(=O)CC5(C)C3C(O)C1O)OC(=O)C(OC(=O)C=C1CCCC1)C24 (centres unmarked) [15-O-(cyclopentylideneacetyl)-bruceolide]
% Kill, SK-N-AS ([9]; 1 h exposure): 0% | % Kill, SK-N-AS ([9]; 24 h exposure): 50% | Sum [6]: 800 | C38ΔL1210 [6]: 350 | C38ΔCFU [6]: 450 | Product [6]: 4000 | % Kill, LS-174T ([10]; 1 h exposure): 0% | % Kill, LS-174T ([10]; 24 h exposure): 50%

COC(=O)C12OCC34C(CC5C(C)=C(O)C(=O)CC5(C)C3C(O)C1O)OC(=O)C(OC(=O)C1=CCCC1)C24 (centres unmarked) [15-O-(1′-cyclopentenoyl)-bruceolide]
% Kill, SK-N-AS ([9]; 1 h exposure): 0% | % Kill, SK-N-AS ([9]; 24 h exposure): 0% | Sum [6]: 750 | C38ΔL1210 [6]: 350 | C38ΔCFU [6]: 400 | Product [6]: 750 | % Kill, LS-174T ([10]; 1 h exposure): 0% | % Kill, LS-174T ([10]; 24 h exposure): 8%

COC(=O)C12OCC34C(CC5C(C)=C(O)C(=O)CC5(C)C3C(O)C1O)OC(=O)C(OC(=O)c1cc(C)oc1C)C24 (centres unmarked) [15-O-(2′,5′-dimethyl-3′-furoyl)-bruceolide]
% Kill, SK-N-AS ([9]; 1 h exposure): 0% | % Kill, SK-N-AS ([9]; 24 h exposure): 34% | Sum [6]: 1050 | C38ΔL1210 [6]: 500 | C38ΔCFU [6]: 550 | Product [6]: 4200 | % Kill, LS-174T ([10]; 1 h exposure): 12% | % Kill, LS-174T ([10]; 24 h exposure): 53%

Source: patent US20060281807A1, “Quassinoid compositions for the treatment of cancer and other proliferative diseases” (Tapestry Pharmaceuticals, Inc., priority 2005, published 2006)
